The source of these data is paper PMC6364417, “Kinase inhibitor library screening identifies synergistic drug combinations effective in sensitive and resistant melanoma cells” (Journal of Experimental & Clinical Cancer Research : CR, 2019).

Where two headings read alike, the source gives them in different places.

In experiment [1] the test system is 501Mel-XP cells (Vemurafenib-resistant). As to the kind of experiment: Kinase inhibitor library screening, PrestoBlue cell viability, 1 or 10 μM, 72 h. Conditions: 72 h; for viability at 1 µM / viability at 10 µM: Homo sapiens; for viability at 1 µM: read-out: cell viability, 501Mel XP, 1μΜ; for viability at 10 µM: read-out: cell viability, 501Mel XP, 10μΜ.
The next experiment deals with 501Mel cells (parental). The description is as above. Conditions: 72 h; for viability at 1 µM / viability at 10 µM: Homo sapiens; for viability at 1 µM: read-out: cell viability, 501Mel Parental, 1μΜ; for viability at 10 µM: read-out: cell viability, 501Mel Parental, 10μΜ. The gist of the method: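 Sensitive parental cells and their resistant derivatives were exposed to library compounds for 72 h. Values represent viability as a percentage of untreated cells.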

Experiment [2] concerns A375-GP cells (Dabrafenib-resistant). The experiment is described as above. The conditions noted are these: for viability at 1 µM / viability at 10 µM: Homo sapiens, A-375, 72 h; for viability at 1 µM: read-out: cell viability, A375 GP, 1μΜ; for viability at 10 µM: read-out: cell viability, A375 GP, 10μΜ.
The subject of experiment [3] is IGR37-XP cells (Vemurafenib-resistant). Described as above. The conditions noted are these: for viability at 1 µM / viability at 10 µM: Homo sapiens, IGR-37, 72 h; for viability at 1 µM: read-out: cell viability, IGR37 XP, 1μΜ; for viability at 10 µM: read-out: cell viability, IGR37 XP, 10μΜ.
The subject of experiment [4] is A375-XP cells (Vemurafenib-resistant). Described as above. The conditions noted are these: for viability at 1 µM / viability at 10 µM: Homo sapiens, A-375, 72 h; for viability at 1 µM: read-out: cell viability, A375 XP, 1μΜ; for viability at 10 µM: read-out: cell viability, A375 XP, 10μΜ.
In experiment [5] the test system is 501Mel-GP cells (Dabrafenib-resistant). The experiment is described as above. The conditions noted are these: 72 h; for viability at 1 µM / viability at 10 µM: Homo sapiens; for viability at 1 µM: read-out: cell viability, 501Mel GP, 1μΜ; for viability at 10 µM: read-out: cell viability, 501Mel GP, 10μΜ.
Experiment [6] relates to IGR37-GP cells (Dabrafenib-resistant). Described as above. Conditions: for viability at 1 µM / viability at 10 µM: Homo sapiens, IGR-37, 72 h; for viability at 1 µM: read-out: cell viability, IGR37 GP, 1μΜ; for viability at 10 µM: read-out: cell viability, IGR37 GP, 10μΜ.
In a further experiment the test system is IGR37 cells (parental). The description is as above. Conditions: for viability at 1 µM / viability at 10 µM: Homo sapiens, IGR-37, 72 h; for viability at 1 µM: read-out: cell viability, IGR37 Parental, 1μΜ; for viability at 10 µM: read-out: cell viability, IGR37 Parental, 10μΜ.
The subject of experiment [7] is A375 cells (parental). Described as above. The conditions noted are these: for viability at 1 µM / viability at 10 µM: Homo sapiens, A-375, 72 h; for viability at 1 µM: read-out: cell viability, A375 Parental, 1μΜ; for viability at 10 µM: read-out: cell viability, A375 Parental, 10μΜ.
Experiment [8] relates to A375-GP cells (Dabrafenib-resistant). In words: Dose-response curves and IC50, PrestoBlue cell viability, 72 h. It is filed as cell-based, human. Conditions: n.e. = did not suppress growth below 50% in the tested concentration range, read-out: Half-maximal inhibitory concentration value (IC50), Mean.
In the next experiment the test system is A375 cells. In words: Synergy determination with the Chou-Talalay method (CompuSyn), cell viability 72 h. It is filed as cell-based, human. The conditions noted are these: 72 h cell viability, Chou-Talalay / Synergyfinder. On the procedure:
The Chou-Talalay method to determine possible synergistic effects of selected kinase inhibitor combinations was used as described in [19]. […] Cells were treated with either single inhibitors or combinations thereof at indicated amounts in technical triplicates. The amounts were pre-determined from each inhibitor’s IC50 value and inhibitors were assayed in a defined dilution series and at constant ratio when combined. […] Combination Index (CI) values showing either synergy (< 1) or antagonism (> 1) were calculated with the CompuSyn software (ComboSyn, Inc).

The subject of experiment [9] is A375 cells (parental). In words: Dose-response curves and IC50, PrestoBlue cell viability, 72 h. It is filed as cell-based, human. Conditions: read-out: Half-maximal inhibitory concentration value (IC50), Mean.
In experiment [10] the test system is A375-XP cells (Vemurafenib-resistant). Described as above. It is filed as cell-based, human. Conditions: n.e. = did not suppress growth below 50% in the tested concentration range, read-out: Half-maximal inhibitory concentration value (IC50), Mean.
Setting [11] is: Homo sapiens, A-375, n.e. = did not suppress growth below 50% in the tested concentration range.
[12] abbreviates: n.e. = did not suppress growth below 50% in the tested concentration range.

Regarding `O=C(Nc1cc(C(F)(F)F)cc(C(F)(F)F)c1)c1cc(Cl)ccc1O` [IMD 0354, reference compound], the viability at 1 µM in experiment [1] came out at 26%; in the experiment with 501Mel cells (parental) it was 34.2%; in [2] it was 25.5%; in experiment [3], 41.2%; in experiment [4] it was 29.7%; in experiment [5], 25.5%. Moreover, the viability at 1 µM came to 46.7% in experiment [6], 59.5% in the experiment on IGR37 cells (parental) and 23.1% with A375 cells (parental) [7]. In addition, the viability at 10 µM in [1] is -0.369%; with 501Mel cells (parental), -0.0333%; in [2], 8.1%; in experiment [3], 4.1%; in experiment [4] it was 4.8%; in experiment [5] it was -0.276%. The viability at 10 µM was 15.4% in experiment [6], 2.8% with IGR37 cells (parental) and 6.5% in the experiment on A375 cells (parental) [7]. Also, the IC50 in experiment [8] (Homo sapiens) came out at 738 nM; with A375 cells (parental) [9] (setting [11]), 640 nM; in [10] (Homo sapiens), 1000 nM. Besides, the “synergistic effects with the BRAF inhibitors Vemurafenib and/or Dabrafenib (in words)” value in the experiment on A375 cells is given as “did not act synergistically”.
In the case of `O=C(NC1CCNCC1)c1[nH]ncc1NC(=O)c1c(Cl)cccc1Cl` [AT7519, reference compound], the “cell viability (kinase inhibitor library screening)” value in [1] (501Mel XP, 1μΜ) is 73.2%; in experiment [1] (501Mel XP, 10μΜ), 0.0524%; in the experiment with 501Mel cells (parental) (501Mel Parental, 1μΜ) it was 82.3%; in the experiment on 501Mel cells (parental) (501Mel Parental, 10μΜ), 1.4%; in experiment [2] (A375 GP, 1μΜ, 72 h), 17.7%; in [2] (A375 GP, 10μΜ, 72 h), 4.8%. The “cell viability (kinase inhibitor library screening)” value in experiment [3] (IGR37 XP, 1μΜ, 72 h) was found to be 10.8%; in experiment [3] (IGR37 XP, 10μΜ, 72 h), 2.4%; in [4] (A375 XP, 1μΜ, 72 h), 37.2%; in experiment [4] (A375 XP, 10μΜ, 72 h), 7.6%; in experiment [5] (501Mel GP, 1μΜ), 96.2%; in experiment [5] (501Mel GP, 10μΜ) it was 0.428%. For the same compound, the “cell viability (kinase inhibitor library screening)” value is reported as 35.9% in [6] (IGR37 GP, 1μΜ, 72 h); 3.9% in experiment [6] (IGR37 GP, 10μΜ, 72 h); 79.7% in the experiment on IGR37 cells (parental) (IGR37 Parental, 1μΜ, 72 h); 2.2% in the experiment with IGR37 cells (parental) (IGR37 Parental, 10μΜ, 72 h); 8.2% in the experiment on A375 cells (parental) [7] (A375 Parental, 10μΜ, 72 h); 30.7% in the experiment with A375 cells (parental) [7] (A375 Parental, 1μΜ, 72 h). The IC50 in experiment [8] (Homo sapiens) came out at 645 nM; with A375 cells (parental) [9] (setting [11]) it was 544 nM; in experiment [10] (Homo sapiens), 631 nM. Besides, the “synergistic effects with the BRAF inhibitors Vemurafenib and/or Dabrafenib (in words)” value in the experiment with A375 cells is on record as “did not act synergistically”.
Consider `CN1CC[C@H](c2c(O)cc(O)c3c(=O)cc(-c4ccccc4Cl)oc23)[C@H](O)C1.Cl` [Flavopiridol HCL], for which the figures for the IC50 (in experiment [8]; in the experiment with A375 cells (parental) [9] (setting [12]); in [10]) were 123 nM, 112 nM and 136 nM, respectively. The “synergistic effects with the BRAF inhibitors Vemurafenib and/or Dabrafenib (in words)” value in the experiment with A375 cells is listed as “did not act synergistically”.
Take `Cc1cc(C(=O)NOCCO)c(Nc2ccc(I)cc2F)n(C)c1=O` [AZD8330, reference compound]: the viability at 1 µM in [1] worked out at 69.7%; with 501Mel cells (parental), 48.9%; in [2], 17.9%; in [3] it was 45.7%; in experiment [4], 10.5%; in experiment [5], 86.3%. In addition, the viability at 1 µM in experiment [6] amounted to 57.5%; in the experiment with IGR37 cells (parental), 33%; in the experiment on A375 cells (parental) [7], 17.3%. Also, the viability at 10 µM in experiment [1] is 56.7%; with 501Mel cells (parental), 52.5%; in experiment [2], 13.3%; in [3], 19%; in experiment [4], 12.1%; in [5], 74.6%. Besides, the results for the viability at 10 µM (in experiment [6]; in the experiment with IGR37 cells (parental); with A375 cells (parental) [7]) were 52%, 34% and 17.7%, respectively. For the same compound, the IC50 was 3.2 nM in [8] (Homo sapiens) and 1.8 nM with A375 cells (parental) [9] (setting [11]). Also, in the experiment on A375 cells, the “synergistic effects with the BRAF inhibitors Vemurafenib and/or Dabrafenib (in words)” value is given as “synergistic effects at low concentrations”.
For the compound `Cc1ccc([N+](=O)[O-])cc1S(=O)(=O)N(C)/N=C/c1cnc2ccc(Br)cn12` [PIK-75, reference compound], in experiment [1] (501Mel XP, 1μΜ, in %), the “Cell viability in kinase inhibitor library screening, 501Mel XP, 1μΜ” value was -0.0746. In addition, the “Cell viability in kinase inhibitor library screening, 501Mel XP, 10μΜ” value in experiment [1] (501Mel XP, 10μΜ, in %) was -0.125. Also, in the experiment with 501Mel cells (parental) (501Mel Parental, 1μΜ, in %), the “Cell viability in kinase inhibitor library screening, 501Mel Parental, 1μΜ” value is reported as 0.758. In addition, the “Cell viability in kinase inhibitor library screening, 501Mel Parental, 10μΜ” value in the experiment with 501Mel cells (parental) (501Mel Parental, 10μΜ, in %) was 0.0735. For the same compound, the “Cell viability in kinase inhibitor library screening, A375 GP, 1μΜ” value in experiment [2] (A375 GP, 1μΜ, 72 h) was 4.0. Moreover, the “Cell viability in kinase inhibitor library screening, A375 GP, 10μΜ” value in [2] (A375 GP, 10μΜ, 72 h) is given as 1.2. Also, the Cell viability in kinase inhibitor library screening, IGR37 XP, 10μΜ in experiment [3] (IGR37 XP, 10μΜ, 72 h) worked out at 0.7%. Also, in experiment [3] (IGR37 XP, 1μΜ, 72 h, in %), the “Cell viability in kinase inhibitor library screening, IGR37 XP, 1μΜ” value worked out at 1.2. Further, the “Cell viability in kinase inhibitor library screening, A375 XP, 1μΜ” value in experiment [4] (A375 XP, 1μΜ, 72 h) is reported as 5.1. Moreover, the “Cell viability in kinase inhibitor library screening, A375 XP, 10μΜ” value in [4] (A375 XP, 10μΜ, 72 h) amounted to 2.3. Besides, the “Cell viability in kinase inhibitor library screening, 501Mel GP, 1μΜ” value in [5] (501Mel GP, 1μΜ, in %) was 0.164. For the same compound, the “Cell viability in kinase inhibitor library screening, 501Mel GP, 10μΜ” value in [5] (501Mel GP, 10μΜ, in %) is recorded as 0.3. For the same compound, in [6] (IGR37 GP, 10μΜ, 72 h), the Cell viability in kinase inhibitor library screening, IGR37 GP, 10μΜ came to 1.1%. Moreover, the “Cell viability in kinase inhibitor library screening, IGR37 GP, 1μΜ” value in experiment [6] (IGR37 GP, 1μΜ, 72 h, in %) is on record as 1.7. The “Cell viability in kinase inhibitor library screening, IGR37 Parental, 1μΜ” value in the experiment on IGR37 cells (parental) (IGR37 Parental, 1μΜ, 72 h, in %) was determined as 1.2. The “Cell viability in kinase inhibitor library screening, IGR37 Parental, 10μΜ” value in the experiment on IGR37 cells (parental) (IGR37 Parental, 10μΜ, 72 h, in %) turned out to be 0.6. For the same compound, the “Cell viability in kinase inhibitor library screening, A375 Parental, 10μΜ” value in the experiment on A375 cells (parental) [7] (A375 Parental, 10μΜ, 72 h) was found to be 1.8. For the same compound, the “Cell viability in kinase inhibitor library screening, A375 Parental, 1μΜ” value in the experiment with A375 cells (parental) [7] (A375 Parental, 1μΜ, 72 h) was 4.1. Also, the IC50 was determined as 45 nM in experiment [8], 55 nM in the experiment on A375 cells (parental) [9] (setting [12]) and 53 nM in [10]. The “synergistic effects with the BRAF inhibitors Vemurafenib and/or Dabrafenib (in words)” value in the experiment on A375 cells is listed as “synergistic effects only with Dabrafenib”.
